The text below walks through data of US8497255B2, “Phosphonic acids as S1P receptor modulators” (Allergan, Inc., priority 2010, dated 2013).

The structures appear in SMILES notation.

T1 sequence (P21453 whole entry): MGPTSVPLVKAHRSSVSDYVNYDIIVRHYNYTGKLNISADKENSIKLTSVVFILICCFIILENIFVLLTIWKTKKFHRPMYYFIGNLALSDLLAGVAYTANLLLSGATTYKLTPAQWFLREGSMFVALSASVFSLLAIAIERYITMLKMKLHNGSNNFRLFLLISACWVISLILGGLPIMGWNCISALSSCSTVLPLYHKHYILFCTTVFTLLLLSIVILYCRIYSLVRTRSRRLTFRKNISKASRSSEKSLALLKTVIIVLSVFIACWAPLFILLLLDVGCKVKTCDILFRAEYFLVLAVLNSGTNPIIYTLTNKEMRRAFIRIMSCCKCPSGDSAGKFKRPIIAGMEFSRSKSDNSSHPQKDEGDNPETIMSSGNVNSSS

This assay addresses T1, human S1P1 receptor (Homo sapiens, UniProt P21453).
T1 construct: expressed in transfected cells; membranes used
Put plainly: GTP γ35S binding assay for S1P1 activity. The format is biochemical. The settings on record: activity potency, S1P1 receptor from GTP γ35S binding; membranes, 30 min at 25° C. As to the method: Compounds were synthesized and tested for S1P1 activity using the GTP γ^35S binding assay. These compounds may be assessed for their ability to activate or block activation of the human S1P1 receptor in cells stably expressing the S1P1 receptor.
GTP γ^35S binding was measured in the medium containing (mM) HEPES 25, pH 7.4, MgCl2 10, NaCl 100, dithitothreitol 0.5, digitonin 0.003%, 0.2 nM GTP γ^35S, and 5 μg membrane protein in a volume of 150 μl. Test compounds were included in the concentration range from 0.08 to 5,000 nM unless indicated otherwise. Membranes were incubated with 100 μM 5′-adenylylimmidodiphosphate for 30 min, and subsequently with 10 μM GDP for 10 min on ice. Drug solutions and membrane were mixed, and then reactions were initiated by adding GTP γ^35S and continued for 30 min at 25° C. Reaction mixtures were filtered over Whatman GF/B filters under vacuum, and washed three times with 3 mL of ice-cold buffer (HEPES 25, pH7.4, MgCl2 10 and NaCl 100). Filters were dried and mixed with scintillant, and counted for ^35S activity using a β-counter. Agonist-induced GTP γ^35S binding was obtained by subtracting that in the absence of agonist. Binding data were analyzed using a non-linear regression method. In case of antagonist assay, the reaction mixture contained 10 nM S1P in the presence of test antagonist at concentrations ranging from 0.08 to 5000 nM.
Broadly, the EC50 is the concentration needed to bring the measured effect to its halfway point. The molecule `CC(C)Cc1ccc(-c2nc(-c3ccc(CNCCCP(=O)(O)O)cc3)no2)cc1` [Compound 3, (3-{4-[5-(4-Isobutyl-phenyl)-[1,2,4]oxadiazol-3-yl]-benzylamino}-propyl)-phosphonic acid] displayed an EC50 of 1.78 nM. This lies in the single-digit nanomolar range.
`CC(C)Oc1ccc(-c2nc(-c3ccc(CNCCCP(=O)(O)O)cc3)no2)cc1C(F)(F)F` [Compound 1, {3-[(4-{5-[4-isopropoxy-3-(trifluoromethyl)phenyl]-1,2,4-oxadiazol-3-yl}benzyl)amino]propyl}phosphonic acid] came in with a 50% effective concentration (EC50) of 3.14 nM.
Consider `CC(C)Oc1ccc(-c2nc(-c3ccc(CNCCCP(=O)(O)O)cc3)no2)cc1Br` [Compound 2, [3-({4-[5-(3-bromo-4-isopropoxyphenyl)-1,2,4-oxadiazol-3-yl]benzyl}amino)propyl]phosphonic acid], for which the 50% effective concentration (EC50) was 3.1 nM.
